According to PubChem BioAssay (NCI):
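Dose response: 5 concentrations. Exposure: 48 h. Format: 96-well plates. Endpoint: linear interpolation; highest concentration if not reached. GI50 is the concentration that inhibits growth by half. TGI is the concentration that stops growth completely.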

What was measured:
Experiment in all cases: NCI anticancer screen, dose series, 48 h
A498 renal = system: A498 renal
BT-549 breast = system: BT-549 breast
CAKI-1 renal = system: CAKI-1 renal
DU-145 prostate = system: DU-145 prostate
EKVX NSCLC = system: EKVX NSCLC
HS 578T breast = system: HS 578T breast
MALME-3M melanoma = system: MALME-3M melanoma
NCI-H226 lung = system: NCI-H226 lung
NCI-H23 lung = system: NCI-H23 lung
OVCAR-5 ovarian = system: OVCAR-5 ovarian
SK-MEL-28 melanoma = system: SK-MEL-28 melanoma
SK-MEL-5 melanoma = system: SK-MEL-5 melanoma
SK-OV-3 ovarian = system: SK-OV-3 ovarian
SNB-19 CNS = system: SNB-19 CNS
T-47D breast = system: T-47D breast
UACC-257 melanoma = system: UACC-257 melanoma
UACC-62 melanoma = system: UACC-62 melanoma
786-0 renal = system: 786-0 renal
A549 NSCLC = system: A549 NSCLC
ACHN renal = system: ACHN renal
CCRF-CEM leukemia = system: CCRF-CEM leukemia
COLO 205 colon = system: COLO 205 colon
HCC-2998 colon = system: HCC-2998 colon
HCT-116 colon = system: HCT-116 colon
HCT-15 colon = system: HCT-15 colon
HL-60(TB) leukemia = system: HL-60(TB) leukemia
HOP-62 NSCLC = system: HOP-62 NSCLC
HOP-92 NSCLC = system: HOP-92 NSCLC
HT29 colon = system: HT29 colon
IGROV1 ovarian = system: IGROV1 ovarian
K-562 leukemia = system: K-562 leukemia
KM12 colon = system: KM12 colon
LOX IMVI melanoma = system: LOX IMVI melanoma
M14 melanoma = system: M14 melanoma
MCF7 breast = system: MCF7 breast
MDA-MB-231 breast = system: MDA-MB-231 breast
MDA-MB-435 = system: MDA-MB-435
MOLT-4 leukemia = system: MOLT-4 leukemia
NCI-H460 lung = system: NCI-H460 lung
NCI-H522 lung = system: NCI-H522 lung
NCI/ADR-RES ovarian = system: NCI/ADR-RES ovarian
OVCAR-3 ovarian = system: OVCAR-3 ovarian
OVCAR-4 ovarian = system: OVCAR-4 ovarian
OVCAR-8 ovarian = system: OVCAR-8 ovarian
PC-3 prostate = system: PC-3 prostate
RPMI-8226 leukemia = system: RPMI-8226 leukemia
RXF 393 renal = system: RXF 393 renal
SF-268 CNS = system: SF-268 CNS
SF-295 CNS = system: SF-295 CNS
SF-539 CNS = system: SF-539 CNS
SK-MEL-2 melanoma = system: SK-MEL-2 melanoma
SN12C renal = system: SN12C renal
SNB-75 CNS = system: SNB-75 CNS
SR leukemia = system: SR leukemia
SW-620 colon = system: SW-620 colon
TK-10 renal = system: TK-10 renal
U251 CNS = system: U251 CNS
UO-31 renal = system: UO-31 renal

CCCCCCCCCCCCCCCCCC1=NCCN1C(=O)OCCO
GI50 (A498 renal): 9.29 µM | TGI (A498 renal): 56.7 µM | GI50 (BT-549 breast): 3.19 µM | TGI (BT-549 breast): 18.3 µM | GI50 (CAKI-1 renal): 1.75 µM | TGI (CAKI-1 renal): 3.83 µM | GI50 (DU-145 prostate): 1.84 µM | TGI (DU-145 prostate): 3.37 µM | GI50 (EKVX NSCLC): 1.75 µM | TGI (EKVX NSCLC): 4.24 µM | GI50 (HS 578T breast): 4.08 µM | TGI (HS 578T breast): > 100 µM | GI50 (MALME-3M melanoma): 12.9 µM | TGI (MALME-3M melanoma): 42.9 µM | GI50 (NCI-H226 lung): 6.24 µM | TGI (NCI-H226 lung): 45.2 µM | GI50 (NCI-H23 lung): 5.64 µM | TGI (NCI-H23 lung): > 100 µM | GI50 (OVCAR-5 ovarian): 3.35 µM | TGI (OVCAR-5 ovarian): 26.4 µM | GI50 (SK-MEL-28 melanoma): 5.92 µM | TGI (SK-MEL-28 melanoma): 24.5 µM | GI50 (SK-MEL-5 melanoma): 2.93 µM | TGI (SK-MEL-5 melanoma): 10.3 µM | GI50 (SK-OV-3 ovarian): 2.5 µM | TGI (SK-OV-3 ovarian): 7.04 µM | GI50 (SNB-19 CNS): 3.39 µM | TGI (SNB-19 CNS): 12.9 µM | GI50 (T-47D breast): 2.89 µM | TGI (T-47D breast): 9.48 µM | GI50 (UACC-257 melanoma): 2.28 µM | TGI (UACC-257 melanoma): 5.68 µM | GI50 (UACC-62 melanoma): 1.87 µM | TGI (UACC-62 melanoma): 3.46 µM

NC(=O)c1cc2c3ccccc3ccn2c1-c1ccccc1
GI50 (786-0 renal): 0.0775 µM | TGI (786-0 renal): 13.6 µM | GI50 (A498 renal): 0.0468 µM | TGI (A498 renal): 7.42 µM | GI50 (A549 NSCLC): 0.0969 µM | TGI (A549 NSCLC): 9.82 µM | GI50 (ACHN renal): 3.17 µM | TGI (ACHN renal): 30.5 µM | GI50 (BT-549 breast): 0.485 µM | TGI (BT-549 breast): 13.1 µM | GI50 (CAKI-1 renal): 0.143 µM | TGI (CAKI-1 renal): 3.54 µM | GI50 (CCRF-CEM leukemia): 0.0425 µM | TGI (CCRF-CEM leukemia): 13.8 µM | GI50 (COLO 205 colon): 0.454 µM | TGI (COLO 205 colon): 2.31 µM | GI50 (DU-145 prostate): 0.0719 µM | TGI (DU-145 prostate): 2.54 µM | GI50 (EKVX NSCLC): 0.396 µM | TGI (EKVX NSCLC): 45.3 µM | GI50 (HCC-2998 colon): 0.542 µM | TGI (HCC-2998 colon): 9.55 µM | GI50 (HCT-116 colon): 0.0428 µM | TGI (HCT-116 colon): 4.22 µM | GI50 (HCT-15 colon): 0.0543 µM | TGI (HCT-15 colon): 11.9 µM | GI50 (HL-60(TB) leukemia): 0.242 µM | TGI (HL-60(TB) leukemia): 2.96 µM | GI50 (HOP-62 NSCLC): 0.446 µM | TGI (HOP-62 NSCLC): 18.8 µM | GI50 (HOP-92 NSCLC): 0.0179 µM | TGI (HOP-92 NSCLC): 7.77 µM | GI50 (HS 578T breast): 0.0632 µM | TGI (HS 578T breast): 62.6 µM | GI50 (HT29 colon): 0.412 µM | TGI (HT29 colon): 9.12 µM | GI50 (IGROV1 ovarian): 0.141 µM | TGI (IGROV1 ovarian): 33.4 µM | GI50 (K-562 leukemia): 0.12 µM | TGI (K-562 leukemia): 11.8 µM | GI50 (KM12 colon): 0.0396 µM | TGI (KM12 colon): 3.88 µM | GI50 (LOX IMVI melanoma): 0.0912 µM | TGI (LOX IMVI melanoma): 16.2 µM | GI50 (M14 melanoma): 0.0706 µM | TGI (M14 melanoma): 17.7 µM | GI50 (MALME-3M melanoma): 16.7 µM | TGI (MALME-3M melanoma): 47.9 µM | GI50 (MCF7 breast): 0.0597 µM | TGI (MCF7 breast): 13.5 µM | GI50 (MDA-MB-231 breast): 0.662 µM | TGI (MDA-MB-231 breast): 17.5 µM | TGI (MDA-MB-435): > 100 µM | GI50 (MOLT-4 leukemia): 0.521 µM | TGI (MOLT-4 leukemia): 15.9 µM | GI50 (NCI-H226 lung): 0.627 µM | TGI (NCI-H226 lung): 25.7 µM | GI50 (NCI-H23 lung): 0.319 µM | TGI (NCI-H23 lung): 14.4 µM | GI50 (NCI-H460 lung): 0.042 µM | TGI (NCI-H460 lung): 10.5 µM | GI50 (NCI-H522 lung): 0.0666 µM | TGI (NCI-H522 lung): 20.8 µM | GI50 (NCI/ADR-RES ovarian): 0.0317 µM | TGI (NCI/ADR-RES ovarian): 0.0919 µM | GI50 (OVCAR-3 ovarian): 0.0272 µM | TGI (OVCAR-3 ovarian): 0.072 µM | GI50 (OVCAR-4 ovarian): 0.155 µM | TGI (OVCAR-4 ovarian): > 54.5 µM | GI50 (OVCAR-5 ovarian): 5.6 µM | TGI (OVCAR-5 ovarian): 36.7 µM | GI50 (OVCAR-8 ovarian): 0.0937 µM | TGI (OVCAR-8 ovarian): 16.4 µM | GI50 (PC-3 prostate): 0.0371 µM | TGI (PC-3 prostate): 12.6 µM | GI50 (RPMI-8226 leukemia): 0.0371 µM | TGI (RPMI-8226 leukemia): 2.31 µM | GI50 (RXF 393 renal): 0.0462 µM | TGI (RXF 393 renal): 2.26 µM | GI50 (SF-268 CNS): 0.0759 µM | TGI (SF-268 CNS): 13.4 µM | GI50 (SF-295 CNS): 0.0304 µM | TGI (SF-295 CNS): 1.05 µM | GI50 (SF-539 CNS): 0.0248 µM | TGI (SF-539 CNS): 0.0716 µM | GI50 (SK-MEL-2 melanoma): 0.883 µM | TGI (SK-MEL-2 melanoma): 40.9 µM | GI50 (SK-MEL-28 melanoma): 14.7 µM | TGI (SK-MEL-28 melanoma): 34.5 µM | GI50 (SK-MEL-5 melanoma): 0.0392 µM | TGI (SK-MEL-5 melanoma): 3.14 µM | GI50 (SK-OV-3 ovarian): 0.0503 µM | TGI (SK-OV-3 ovarian): 12.7 µM | GI50 (SN12C renal): 0.0889 µM | TGI (SN12C renal): 15.2 µM | GI50 (SNB-19 CNS): 0.0727 µM | TGI (SNB-19 CNS): 22.1 µM | GI50 (SNB-75 CNS): 0.758 µM | TGI (SNB-75 CNS): > 46.9 µM | GI50 (SR leukemia): 0.0933 µM | TGI (SR leukemia): 3.75 µM | GI50 (SW-620 colon): 0.0357 µM | TGI (SW-620 colon): 25 µM | GI50 (TK-10 renal): 0.719 µM | TGI (TK-10 renal): 24 µM | GI50 (U251 CNS): 0.0475 µM | TGI (U251 CNS): 14.2 µM | GI50 (UACC-257 melanoma): 11.5 µM | TGI (UACC-257 melanoma): 26.5 µM | GI50 (UACC-62 melanoma): 0.0385 µM | TGI (UACC-62 melanoma): > 41.7 µM | GI50 (UO-31 renal): 0.708 µM | TGI (UO-31 renal): 26.3 µM
